# Assay results as given in patent publication US9481667B2, “Salts and solid forms of isoquinolinones and composition comprising and methods of using the same” (Infinity Pharmaceuticals, Inc., priority 2013, dated 2016).
# “Also recorded” adds a separate entry of the source. Counter-ions that a name gives are not always drawn.
# What was measured:
# Assay type in all cases: physicochemical
# [1] = Gravimetric vapour sorption (GVS)
# Description: Sorption isotherms were obtained using a Hiden IGASorp moisture sorption analyser, controlled by CFRSorp software. The sample temperature was maintained at 25° C. by a Huber re-circulating water bath. The humidity was controlled by mixing streams of dry and wet nitrogen, with a total flow rate of 250 ml/min. The relative humidity (RH) was measured by a calibrated Vaisala RH probe (dynamic range of 0-95% RH), located near the sample. The weight change, (mass relaxation) of the sample as a function of % RH was constantly monitored by the microbalance (accuracy ±0.001 mg). Typically 10-20 mg of sample was placed in a tared mesh stainless steel basket under ambient conditions. The sample was loaded and unloaded at 40% RH and 25° C. (typical room conditions). A moisture sorption isotherm was performed as outlined below (2 scans giving 1 complete cycle). The standard isotherm was performed at 25° C. at 10% RH intervals over a 0-90% RH range.
# The software uses a least squares minimisation procedure together with a model of the mass relaxation, to predict an asymptotic value. The measured mass relaxation value must be within 5% of that predicted by the software, before the next % RH value is selected. The minimum equilibration time was set to 1 hour and the maximum to 4 hours. The sample was recovered after completion of the isotherm and re-analysed by XRPD.
# [2] = Solubility assessment using free base Hydrate Form 2; conditions: RT (cell says RT, head 50° C.)
# Description: The best solvent systems (clear solutions) were methanol:anisole 1:1 and DMSO (10 volumes, at RT), dioxane (10 volumes, 50° C.), chloroform (20 volumes, RT). […]
# [3] = Polymorph screen: maturation (temperature cycling RT/50° C.) in solvents
# Description: One of 21 solvents was added to each vial in a number of aliquots (up to 30 volumes), with shaking. All the samples were then placed under maturation between RT to 50° C. (4 hours at each temperature) for 3 days. After maturation the samples were analysed by XRPD. Clear solutions were cooled to −20° C. (freezer). If no precipitation occurred samples were evaporated at RT.
# Samples were placed under maturation between RT-50° C. (4 hours cycle) for 3 days. After maturation the samples were analyzed by XRPD. Clear solutions were then cooled to −20° C. (freezer). If no precipitation occurred, samples were evaporated at RT.
# Bis-Sulfuric acid salt Form 1 of Compound 1 (ca. 35 mg) was weighed into vials. The corresponding solvents and solvent mixtures were added in portions of (a total of) 5, 10, 20, and 30 volumes at 50° C., with shaking, aiming for clear solutions. After each addition, the vials were allowed to shake for 20 minutes, after which observations were made. Solutions were allowed to evaporate, whereas slurries were set for 8 hour temperature cycling maturation, between RT and 50° C., for 5 days.
# The oils obtained by solvent evaporation were used for the maturation screen. Anhydrous solvents (5 volumes; 100 μL) were used in order to minimise the amount of water present. Any solutions were allowed to slowly evaporate, whereas slurries were set for 8 hour temperature cycling maturation, between RT and 50° C. After 24 hours, most oils had not mixed with the solvents, and these were scratched with a spatula, producing slurries. These were matured for a further 24 hours before performing XRPD analysis.
# Amorphous free base Compound 1 (ca. 25 mg) was weighed into vials. The selected solvents and solvent mixtures (5 to 20 volumes) were added with stirring. Any solutions were allowed to slowly evaporate, whereas slurries were set for 8 hour temperature cycling maturation, between RT and 50° C., for 2 days.
# Crystals were ground in order to analyse them by XRPD. Suspensions were set for temperature cycling for a total of five days after which time XRPD analysis was carried out. […] Similar to the screen in Example 20, these XRPD patterns show slight differences (FIG. 37). However, solids from both screens obtained from the same solvent show a matching XRPD pattern, also supporting that this is a series of isostructural solvates. […]
# [4] = Storage at 40° C./75% RH (solid-state stability); conditions: for Stability on storage at 40° C./75% RH: 1 week, solid form by XRPD; for Storage 40° C./75% RH: salt screen solids stored 1 week, outcome / XRPD pattern after storage
# Description: The crystalline solids were filtered, dried at ambient conditions, and stored at 40° C./75% RH for 1 week and analyzed by ^1H NMR/IC.
# Samples from the screen using amorphous free base Compound 1 were analysed by ^1H-NMR and DSC, and re-analysis by XRPD was also carried out after drying at 50° C./vacuum and storage at 40° C./75% RH (the same sample was dried and stored at elevated humidity).
structure (smiles),measurement,setting,value
CC(=O)O.COc1cc(-c2cccc3cc([C@H](C)Nc4nc(N)ncc4C#N)n(-c4ccccc4)c(=O)c23)ccn1.COc1cc(-c2cccc3cc([C@H](C)Nc4nc(N)ncc4C#N)n(-c4ccccc4)c(=O)c23)ccn1 [Batch 1 of Form 6],GVS: XRPD after the experiment,[1],anhydrous Form 4
same,GVS: moisture on loading,[1]; 25° C.,6.3% w/w moisture on
same,GVS: reversible moisture uptake between 0-90% RH,[1]; second cycle,cycle shows 4.9%
COc1cc(-c2cccc3cc([C@H](C)Nc4nc(N)ncc4C#N)n(-c4ccccc4)c(=O)c23)ccn1.O [FB Hydrate Form 2],Solubility,"[2]; DMSO, 10 vols",✓ (RT)
same,Solubility,"[2]; MeOH/anisole, 10 vols",✓ (RT)
same,Solubility,"[2]; chloroform, 20 vols",✓ (RT)
same,XRPD,"[3]; 1-butanol, Maturation",Crystalline Form 5
same,XRPD,"[3]; 2-MeTHF, evaporation yielded oil, maturation of oil",Crystalline Form 5
same,XRPD,"[3]; Acetone, Maturation",Crystalline Form 5
same,XRPD,"[3]; DCM:MeOH 1:1, Crystallization in fridge",Crystalline Form 5 + Form 1
same,XRPD,"[3]; DCM, Crystallization in fridge",Crystalline Form 5
same,XRPD,"[3]; DMSO, no crystallization in fridge, set for evaporation",Amorphous
same,XRPD,"[3]; Dioxane, evaporation yielded oil, maturation of oil",Crystalline Form 5 + Form 3
same,XRPD,"[3]; EtOAc, Maturation",Crystalline Form 5
same,XRPD,"[3]; EtOH/5% water, Maturation",Crystalline Form 5
same,XRPD,"[3]; EtOH/water 1:1, Maturation",Crystalline Form 2
same,XRPD,"[3]; EtOH, Maturation",Crystalline Form 5
same,XRPD,"[3]; IPA, Maturation",Crystalline Form 5
same,XRPD,"[3]; IPAc, Maturation",Crystalline Form 5
same,XRPD,"[3]; MIBK, Maturation",Crystalline Form 5
same,XRPD,"[3]; MeCN/5% water, Crystallization in fridge",Crystalline Form 5
same,XRPD,"[3]; MeOH/anisole, Crystallization in fridge",Crystalline Form 5
same,XRPD,"[3]; THF, Crystallization in fridge",Crystalline Form 5
same,XRPD,"[3]; acetonitrile, Maturation",Crystalline Form 5
same,XRPD,"[3]; chloroform, cooling in fridge yielded oil, maturation of oil",Crystalline Form 5
"COc1cc(-c2cccc3cc([C@H](C)Nc4nc(N)ncc4C#N)n(-c4ccccc4)c(=O)c23)ccn1 [Form 1 of the hydrochloride salt of Compound 1] [(S)-2-amino-4-((1-(8-(2-methoxypyridin-4-yl)-1-oxo-2-phenyl-1,2-dihydroisoquinolin-3-yl)ethyl)amino)pyrimidine-5-carbonitrile]",Stability on storage at 40° C./75% RH,[4],deliquesces
same,Stability on storage at 40° C./75% RH,[4]; listed as hydrochloride,deliquesced
same,Storage 40° C./75% RH,[4]; listed as Hydrochloric acid,Deliquesced
"COc1cc(-c2cccc3cc([C@H](C)Nc4nc(N)ncc4C#N)n(-c4ccccc4)c(=O)c23)ccn1 [Form 1 of the isethionate salt of Compound 1] [(S)-2-amino-4-((1-(8-(2-methoxypyridin-4-yl)-1-oxo-2-phenyl-1,2-dihydroisoquinolin-3-yl)ethyl)amino)pyrimidine-5-carbonitrile]",Stability on storage at 40° C./75% RH,[4],deliquesces
same,Stability on storage at 40° C./75% RH,[4]; listed as isethionate,deliquesced
same,Storage 40° C./75% RH,[4]; listed as 2-Hydroxyethane sulfonic acid,Deliquesced
COc1cc(-c2cccc3cc([C@H](C)Nc4nc(N)ncc4C#N)n(-c4ccccc4)c(=O)c23)ccn1 [Form 4 of Free Base Compound 1],GVS: moisture on loading,[1]; 25° C.,0.3 % w/w
same,GVS: uptaken between 70-90% RH,"[1]; 25° C., with hysteresis on desorption",4.8 % w/w
"COc1cc(-c2cccc3cc([C@H](C)Nc4nc(N)ncc4C#N)n(-c4ccccc4)c(=O)c23)ccn1 [Form 4 of the free base of Compound 1, (S)-2-amino-4-((1-(8-(2-methoxypyridin-4-yl)-1-oxo-2-phenyl-1,2-dihydroisoquinolin-3-yl)ethyl)amino)pyrimidine-5-carbonitrile]",XRPD after Storage at 40° C./75% RH,[4]; screening sample from H2O,No changes
same,GVS: form change with humidity,[1]; above 80% RH,"hydrates above 80% RH, but reversibly dehydrates back at 40% RH"
"COc1cc(-c2cccc3cc([C@H](C)Nc4nc(N)ncc4C#N)n(-c4ccccc4)c(=O)c23)ccn1 [Form 6 of the free base of Compound 1, (S)-2-amino-4-((1-(8-(2-methoxypyridin-4-yl)-1-oxo-2-phenyl-1,2-dihydroisoquinolin-3-yl)ethyl)amino)pyrimidine-5-carbonitrile]",Stability on storage at 40° C./75% RH,[4],converts to Form 3
same,Storage at elevated humidity,"[4]; elevated humidity conditions, solid form",conversion to Hydrate Form 3
same,GVS: form change with humidity,[1]; at 0% RH,Desolvation to the anhydrous Form 4
CC(=O)c1ccc2c(c1)[C@@H]1C=CC[C@@H]1[C@H](c1cc3c(cc1Br)OCO3)N2 [amorphous material],XRPD,"[3]; 2-MeTHF 200 μL, cycling RT/50° C.",Crystalline Form 5
same,XRPD,"[3]; Acetone 100 μL, cycling RT/50° C.",Crystalline Form 5
same,XRPD,"[3]; Acetonitrile 200 μL, cycling RT/50° C.",Crystalline Form 5
same,XRPD,"[3]; DCM 150 μL, cycling RT/50° C.",Crystalline Form 5
same,XRPD,"[3]; DCM:MeOH 1:1 150 μL, cycling RT/50° C.",Crystalline Form 5
same,XRPD,"[3]; DME 150 μL, cycling RT/50° C.",Crystalline Form 5
same,XRPD,"[3]; EtOAc 100 μL, cycling RT/50° C.",Crystalline Form 5
same,XRPD,"[3]; EtOH 250 μL, cycling RT/50° C.",Crystalline Form 5
same,XRPD,"[3]; EtOH/5% water 150 μL, cycling RT/50° C.",Crystalline Form 5
same,XRPD,"[3]; H2O 450 μL, cycling RT/50° C.",Partially crystalline =; also recorded: matches FB Pattern 4
same,XRPD,"[3]; IPA 150 μL, cycling RT/50° C.",Crystalline Form 5
same,XRPD,"[3]; IPAc 300 μL, 16 hours maturation",Crystalline Form 5
same,XRPD,"[3]; MIBK 100 μL, cycling RT/50° C.",Crystalline Form 5
same,XRPD,"[3]; MeCN/5% water 150 μL, cycling RT/50° C.",Crystalline Form 5
same,XRPD,"[3]; MeOH 250 μL, cycling RT/50° C.",Crystalline Form 5
same,XRPD,"[3]; TBME 300 μL, cycling RT/50° C.",Crystalline Form 5
same,XRPD,"[3]; THF 150 μL, cycling RT/50° C.",Crystalline Form 5
same,XRPD,"[3]; THF/5% water 150 μL, cycling RT/50° C.",Crystalline Form 5
